Bridge positions count the residues as written; N and C are the ends. Square brackets hold non-standard residues; d marks the D form. Peptide text beside a SMILES is read from it. * marks the point of attachment. ξ: configuration not given here. Thr(3ξ) = CC(O)[C@H](N)C(=O)O; Propanoyl(3-OH) = O=C(CCO)*; Dab = NCC[C@H](N)C(=O)O; X16 = CN(C)CCCC(=O)*; X15 = O=C(C1CCNC1)*; Ava = NCCCCC(=O)O
Legend:
Assay type in all cases: cell-based
[1] = system: Pseudomonas aeruginosa; test: MIC, sole activity (no second agent); conditions: for MIC P. aeruginosa ATCCCRM-9027: strain ATCCCRM-9027
In short: (§1)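 Inoculum: direct colony suspension (18-24 h MH agar), 0.5 McFarland. Medium: cation-adjusted MHB. Up to 4 strains/species; reported relative to Polymyxin B.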

[2] = system: Escherichia coli; test: MIC, sole activity (no second agent)
In short: as §1

[3] = system: Klebsiella pneumoniae; test: MIC, sole activity (no second agent)
In short: as §1

[4] = system: Acinetobacter baumannii; test: MIC, sole activity (no second agent); conditions: for MIC A. baumannii ATCCBAA-747 / MIC A. baumannii NCTC 13423: in the absence of Rifampicin; for MIC A. baumannii ATCCBAA-747: strain ATCCBAA-747; for MIC A. baumannii NCTC 13423: strain NCTC13423; for MIC A. baumannii ATCC BAA-747 / MIC A. baumannii NCTC 13424: Table 6A, no second agent, different supplier of Cation-adjusted MHB
In short: as §1

[5] = system: Pseudomonas aeruginosa; test: MIC, compound in combination with a second agent (broth microdilution); conditions: 1:1 (wt:wt) combination with Rifampicin; MIC = total drug concentration; strain CCUG 59626
Protocol: (§2) To evaluate the potency and spectrum of the compounds both alone and in combination with another agent, susceptibility testing was performed against up to four strains of each of the four Gram negative pathogens, Escherichia coli, Pseudomonas aeruginosa, Klebsiella pneumoniae and Acinetobacter baumannii.
(§3) Ratios of components in a combination, such as 1:1, refers to a weight to weight ratio. The minimum inhibitory concentration (MIC) refers to the total drug concentration (e.g. test compound plus second agent, such as Rifampicin).
(§4) The inoculum was prepared by making a direct suspension of isolated colonies (selected from an 18-24 hour Mueller-Hinton agar plate) adjusted to the 0.5 McFarland standard.
(§5) The assays were performed in duplicate.
(§6) In cases where the duplicate values varied by less than 2-fold, the lower of the two values is reported. If a variation of greater than 2-fold was observed, the assay was considered non-valid. Several of the compounds were subjected to multiple tests, and where this is the case, the MIC reflects the modal value obtained.
(§7) The minimum inhibitory concentration refers to the total drug concentration (e.g. test compound plus Rifampicin). The compounds are used at equal mass within the combination. The weight refers to the mass of compound as used, for example the Example Compounds are used in their TFA or sulphate salt forms.
(§8) MICs refer to the total drug concentration. Thus, where a 1:1 combination is used, this is the amount of the test compound plus the second agent. For comparison, the MIC values for the second agent alone are also given.

[6] = system: Klebsiella pneumoniae; test: as above; conditions: 1:1 (wt:wt) combination with Rifampicin, MIC = total drug concentration; for MIC K. pneumoniae CCUG-59348: strain CCUG-59348; for MIC K. pneumoniae ATCC-BAA-2146: strain ATCC-BAA-2146; for MIC K. pneumoniae NCTC 13438: strain NCTC 13438
Protocol: as §2, §3, §4, §5, §6, §7, §8

[7] = system: Acinetobacter baumannii; test: as above; conditions: 1:1 (wt:wt) combination with Rifampicin; MIC = total drug concentration; strain NCTC 13424
Protocol: as §2, §3, §4, §5, §6, §7, §8

[8] = in the absence of Rifampicin, strain ATCC27853
[9] = in the absence of Rifampicin, strain ATCC25922
[10] = in the absence of Rifampicin, strain ATCC 4352
[11] = Table 6A, no second agent, different supplier of Cation-adjusted MHB

## CC(C)C[C@@H]1NC(=O)[C@@H](Cc2ccccc2)NC(=O)[C@H](CCN)NC(=O)[C@@H](NC(=O)[C@H](CCN)NC(=O)[C@@H](NC(=O)CCCCN)C(C)O)CCNC(=O)[C@H](C(C)O)NC(=O)[C@H](CCN)NC(=O)[C@H](CCN)NC1=O (stereo partly drawn) [Example 6, 5-Aminopentanoyl polymyxin B nonapeptide] (H-[Ava][Thr(3ξ)][Dab][Dab][Dab][dF]L[Dab][Dab][Thr(3ξ)]; lactam 4-C)
[1]; [8]
  MIC P. aeruginosa ATCC 27853: 0.25 micrograms/mL
[1]; in the absence of Rifampicin
  MIC P. aeruginosa ATCCCRM-9027: 0.125 micrograms/mL
[2]; [9]
  MIC E. coli ATCC25922: 2 micrograms/mL
[2]; in the absence of Rifampicin, strain NCTC9001
  MIC E. coli NCTC9001: 2 micrograms/mL
[3]; [10]
  MIC K. pneumoniae ATCC 4352: 0.5 micrograms/mL
[4]
  MIC A. baumannii ATCCBAA-747: 8 micrograms/mL
  MIC A. baumannii NCTC 13423: 4 micrograms/mL
[5]
  MIC P. aeruginosa CCUG 59626: ≤0.06 micrograms/mL
[6]
  MIC K. pneumoniae CCUG-59348: 4 micrograms/mL

## CC(C)C[C@@H]1NC(=O)[C@@H](Cc2ccccc2)NC(=O)[C@H](CCN)NC(=O)[C@@H](NC(=O)[C@H](CCN)NC(=O)[C@@H](NC(=O)CCO)C(C)O)CCNC(=O)[C@H](C(C)O)NC(=O)[C@H](CCN)NC(=O)[C@H](CCN)NC1=O (stereo partly drawn) [Example 26, 3-Hydroxypropanoyl polymyxinB nonapeptide] ({Propanoyl(3-OH)}-[Thr(3ξ)][Dab][Dab][Dab][dF]L[Dab][Dab][Thr(3ξ)]; lactam 3-C)
[1]; [8]
  MIC P. aeruginosa ATCC 27853: 0.5 micrograms/mL
[2]; [9]
  MIC E. coli ATCC25922: >32 micrograms/mL
[3]; [10]
  MIC K. pneumoniae ATCC 4352: 4 micrograms/mL
[5]
  MIC P. aeruginosa CCUG 59626: 0.25 micrograms/mL
[6]
  MIC K. pneumoniae ATCC-BAA-2146: 2 micrograms/mL
  MIC K. pneumoniae CCUG-59348: 8 micrograms/mL
[7]
  MIC A. baumannii NCTC 13424: 0.5 micrograms/mL

## CC(C)C[C@@H]1NC(=O)[C@@H](Cc2ccccc2)NC(=O)[C@H](CCN)NC(=O)[C@@H](NC(=O)[C@H](CCN)NC(=O)[C@@H](NC(=O)CC(C)O)C(C)O)CCNC(=O)[C@H](C(C)O)NC(=O)[C@H](CCN)NC(=O)[C@H](CCN)NC1=O (mixture of isomers) [Example 15, 3(RS)-3- Hydroxybutanoyl polymyxin B nonapeptide]
[1]; [8]
  MIC P. aeruginosa ATCC 27853: 0.5 micrograms/mL
[2]; [9]
  MIC E. coli ATCC25922: 4 micrograms/mL
[3]; [10]
  MIC K. pneumoniae ATCC 4352: 8 micrograms/mL
[5]
  MIC P. aeruginosa CCUG 59626: 0.5 micrograms/mL
[6]
  MIC K. pneumoniae ATCC-BAA-2146: 4 micrograms/mL
  MIC K. pneumoniae CCUG-59348: 16 micrograms/mL
[7]
  MIC A. baumannii NCTC 13424: 0.5 micrograms/mL

## (R)-4-isobutylpiperazine-2- carbonyl polymyxin B nonapeptide [Example A46]
[1]; [11]
  MIC P. aeruginosa ATCC 27853: 1 micrograms/mL
  MIC P. aeruginosa CCUG 59347: 2 micrograms/mL
[2]; [11]
  MIC E. coli ATCC25922: 2 micrograms/mL
  MIC E. coli NCTC 13441: 2 micrograms/mL
[3]; [11]
  MIC K. pneumoniae ATCC 4352: 2 micrograms/mL
  MIC K. pneumoniae ATCC BAA-2146: 2 micrograms/mL
[4]
  MIC A. baumannii ATCC BAA-747: 8 micrograms/mL
  MIC A. baumannii NCTC 13424: 2 micrograms/mL

## CC(C)C[C@@H]1NC(=O)[C@@H](Cc2ccccc2)NC(=O)[C@H](CCN)NC(=O)[C@@H](NC(=O)[C@H](CCN)NC(=O)[C@@H](NC(=O)C2CCNC2)C(C)O)CCNC(=O)[C@H](C(C)O)NC(=O)[C@H](CCN)NC(=O)[C@H](CCN)NC1=O (stereo partly drawn) [Example 9, [3(R,S)-Pyrrolidine-3-carbonyl]polymyxin B nonapeptide] (X15-[Thr(3ξ)][Dab][Dab][Dab][dF]L[Dab][Dab][Thr(3ξ)]; lactam 3-C)
[1]; [8]
  MIC P. aeruginosa ATCC 27853: 0.25 micrograms/mL
[1]; in the absence of Rifampicin
  MIC P. aeruginosa ATCCCRM-9027: 2 micrograms/mL
[2]; [9]
  MIC E. coli ATCC25922: 0.5 micrograms/mL
[3]; [10]
  MIC K. pneumoniae ATCC 4352: 0.5 micrograms/mL
[4]
  MIC A. baumannii ATCCBAA-747: 4 micrograms/mL
  MIC A. baumannii NCTC 13423: 2 micrograms/mL
[5]
  MIC P. aeruginosa CCUG 59626: 0.125 micrograms/mL
[6]
  MIC K. pneumoniae ATCC-BAA-2146: 1 micrograms/mL
  MIC K. pneumoniae CCUG-59348: 8 micrograms/mL
  MIC K. pneumoniae NCTC 13438: 0.25 micrograms/mL

## [3(R,S)-3-Amino-3- cyclohexanepropanoyl]-L- Tyr- polymyxin B nonapeptide [Example A27]
[1]; [11]
  MIC P. aeruginosa CCUG 59347: 4 micrograms/mL
[2]; [11]
  MIC E. coli ATCC25922: >8 micrograms/mL
  MIC E. coli NCTC 13441: >8 micrograms/mL
[3]; [11]
  MIC K. pneumoniae ATCC 4352: >8 micrograms/mL
  MIC K. pneumoniae ATCC BAA-2146: >8 micrograms/mL
[4]
  MIC A. baumannii ATCC BAA-747: 8 micrograms/mL
  MIC A. baumannii NCTC 13424: >8 micrograms/mL

## 2-Aminomethylbenzoyl polymyxin B nonapeptide [Example A31]
[1]; [11]
  MIC P. aeruginosa ATCC 27853: 0.5 micrograms/mL
  MIC P. aeruginosa CCUG 59347: 2 micrograms/mL
[2]; [11]
  MIC E. coli ATCC25922: 8 micrograms/mL
  MIC E. coli NCTC 13441: 2 micrograms/mL
[3]; [11]
  MIC K. pneumoniae ATCC 4352: 2 micrograms/mL
  MIC K. pneumoniae ATCC BAA-2146: >8 micrograms/mL
[4]
  MIC A. baumannii ATCC BAA-747: >8 micrograms/mL
  MIC A. baumannii NCTC 13424: >8 micrograms/mL

## (S)-1-(2-methylpropyl)- piperidine-3-carbonyl polymyxin B nonapeptide [Example A48]
[1]; [11]
  MIC P. aeruginosa ATCC 27853: 1 micrograms/mL
  MIC P. aeruginosa CCUG 59347: 4 micrograms/mL
[2]; [11]
  MIC E. coli ATCC25922: 1 micrograms/mL
  MIC E. coli NCTC 13441: 1 micrograms/mL
[3]; [11]
  MIC K. pneumoniae ATCC 4352: 0.5 micrograms/mL
  MIC K. pneumoniae ATCC BAA-2146: 2 micrograms/mL
[4]
  MIC A. baumannii ATCC BAA-747: 4 micrograms/mL
  MIC A. baumannii NCTC 13424: 2 micrograms/mL

## [3(R,S)-3-Amino-3- cyclohexanepropanoyl]-L- Ser- polymyxin B nonapeptide [Example A11]
[1]; [11]
  MIC P. aeruginosa ATCC 27853: 1 micrograms/mL
  MIC P. aeruginosa CCUG 59347: 2 micrograms/mL
[2]; [11]
  MIC E. coli ATCC25922: >8 micrograms/mL
  MIC E. coli NCTC 13441: 8 micrograms/mL
[3]; [11]
  MIC K. pneumoniae ATCC 4352: 8 micrograms/mL
[4]
  MIC A. baumannii ATCC BAA-747: 4 micrograms/mL
  MIC A. baumannii NCTC 13424: 4 micrograms/mL

## CC(C)C[C@@H]1NC(=O)[C@@H](Cc2ccccc2)NC(=O)[C@H](CCN)NC(=O)[C@@H](NC(=O)[C@H](CCN)NC(=O)[C@@H](NC(=O)CCCN(C)C)C(C)O)CCNC(=O)[C@H](C(C)O)NC(=O)[C@H](CCN)NC(=O)[C@H](CCN)NC1=O (stereo partly drawn) [Example 11, 4-(N,N-dimethylamino)-butanoyl polymyxin B nonapeptide] (X16-[Thr(3ξ)][Dab][Dab][Dab][dF]L[Dab][Dab][Thr(3ξ)]; lactam 3-C)
[1]; [8]
  MIC P. aeruginosa ATCC 27853: 0.125 micrograms/mL
[1]; in the absence of Rifampicin
  MIC P. aeruginosa ATCCCRM-9027: 2 micrograms/mL
[2]; [9]
  MIC E. coli ATCC25922: 0.5 micrograms/mL
[3]; [10]
  MIC K. pneumoniae ATCC 4352: 0.5 micrograms/mL
[4]
  MIC A. baumannii ATCCBAA-747: 16 micrograms/mL
  MIC A. baumannii NCTC 13423: 4 micrograms/mL
[5]
  MIC P. aeruginosa CCUG 59626: 0.25 micrograms/mL
[6]
  MIC K. pneumoniae ATCC-BAA-2146: 0.5 micrograms/mL
  MIC K. pneumoniae CCUG-59348: 4 micrograms/mL
  MIC K. pneumoniae NCTC 13438: 1 micrograms/mL

Reference: patent publication US10407467B2, “Polymyxin derivatives and their use in combination therapy together with different antibiotics” (priority 2013, dated 2019)
